Measurements as given in PMC4773385, “Drug design from the cryptic inhibitor envelope” (Nature Communications, 2016).
In brackets after ≈: the same amount, converted by molar mass. Where two headings read alike, the source gives them in different places.

Tests used:
Escherichia coli W3110 = assay: MIC assay; format: cell-based; conditions: for MIC: E. coli
[1] = test system: Salmonella typhimurium LT2; assay: MIC assay; format: cell-based
[2] = test system: Vibrio cholerae P4 (P27459DctxAB::KmR, SmR); assay: MIC assay; format: cell-based; set-up: MIC: unit not given here
[3] = test system: Klebsiella pneumoniae 10031; assay: MIC assay; format: cell-based; set-up: MIC: unit not given here
Enterobacter cloacae = assay: MIC assay; format: cell-based; set-up: MIC: unit not given here
Morganella morganii = assay: MIC assay; format: cell-based
Proteus mirabilis = assay: MIC assay; format: cell-based; set-up: MIC: unit not given here
Escherichia coli LpxC = target: T1, Escherichia coli LpxC (Escherichia coli, UniProt P0A725); assay: LpxC enzymatic assay (radiolabelled substrate, slow tight-binding kinetics); format: biochemical
T1 sequence (P0A725 1-305): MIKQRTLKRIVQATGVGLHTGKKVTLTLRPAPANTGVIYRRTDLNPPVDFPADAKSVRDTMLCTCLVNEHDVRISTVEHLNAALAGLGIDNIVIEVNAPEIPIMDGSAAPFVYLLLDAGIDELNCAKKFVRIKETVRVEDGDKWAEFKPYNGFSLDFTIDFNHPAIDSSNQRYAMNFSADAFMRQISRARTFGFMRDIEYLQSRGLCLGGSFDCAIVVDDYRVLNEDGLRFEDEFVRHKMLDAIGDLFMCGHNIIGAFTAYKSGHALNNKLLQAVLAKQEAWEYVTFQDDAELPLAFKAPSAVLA
Experimental: The radiolabelled substrate for the LpxC enzymatic assays, [α-^32P] UDP-3-O-[(R)-3-hydroxymyristoyl]-N-acetylglucosamine, and the unlabelled carrier substrate were prepared as previously described. […] Serial twofold dilutions of each inhibitor were prepared in DMSO and added to the reaction mixture with a 10-fold dilution. The assays were initiated by addition of purified LpxC protein into the reaction mix with 1:4 dilution to the final concentration as specified.
The KM value was determined by varying substrate concentrations from 0.4 to 50 μM with 0.2 nM of LpxC. To study the slow, tight-binding inhibition, LpxC activity was assessed in the presence of varying inhibitor concentrations. […] The following time-dependent equation was used to fit the data: […]
The Ki* was determined by analysing the rate of product accumulation after formation of the stable EI* complex. […] The Morrison's quadratic equation was used to fit the fractional activity data to determine Ki^*app:
where [E]T and [I]T represent the total enzyme and inhibitor concentrations, respectively. The inhibition constant Ki* is converted from Ki^*app according to the following relationship:
For two-step slow-binding inhibition, kinetic parameters k5, k6 and Ki were extracted from curve fitting of experimental kobs values to inhibitor concentrations based on equations (5 and 6).

[4] = test system: Pseudomonas aeruginosa PAO1; assay: MIC assay; format: cell-based
Chlamydia trachomatis = assay: Minimal chlamydiacidal concentration (MCC); format: cell-based; set-up: Minimal chlamydiacidal concentration (MCC), listed in MIC column: unit not given here
[5] = test system: Acinetobacter baumannii 17978; assay: MIC assay; format: cell-based
[6] = E. coli LpxC, 20 pM enzyme, 5 μM substrate, 30 °C, Morrison fit, read-out: Ki* (inhibition constant of the stable EI* complex)
[7] = fit of kobs vs inhibitor concentration, 30 μM substrate, 0.1 nM enzyme

C[C@@H](O)[C@H](NC(=O)c1ccc(C#CC#Cc2ccc(N)cc2)cc1)C(=O)NO [LPC-011]
MIC (Escherichia coli W3110): 0.04 µg/mL (≈ 0.106 µM) | MIC [1]: 0.06 µg/mL (≈ 0.159 µM) | MIC [2]: 0.063 | MIC [3]: 0.01 | MIC (Enterobacter cloacae): 0.052 | MIC (Morganella morganii): 0.039 g/mL | MIC (Proteus mirabilis): 0.13

CC(C)(O)[C@H](NC(=O)c1ccc(C#CC#Cc2ccc(N)cc2)cc1)C(=O)NO [LPC-037]
Ki (Escherichia coli LpxC; [6]): 0.014 ± 0.001 nM

CC(C)(N)[C@H](NC(=O)c1ccc(C#CC#Cc2ccc(N)cc2)cc1)C(=O)NO [LPC-040]
Ki (Escherichia coli LpxC; [6]): 0.012 ± 0.001 nM

C[C@@](O)(C(F)F)[C@H](NC(=O)c1ccc(C#CC#Cc2ccc(N)cc2)cc1)C(=O)NO [LPC-058]
enhancement of potency (Ki*) over CHIR-090 (Escherichia coli LpxC; E. coli LpxC): 44 fold | enhancement of potency (Ki*) over LPC-011 (Escherichia coli LpxC; E. coli LpxC): 7 fold | Ki (Escherichia coli LpxC; [6]): 0.0035 ± 0.0002 nM | k5 (forward rate from EI to EI*) (Escherichia coli LpxC; [7]): 0.39 ± 0.02 min⁻¹ | k6 (reverse rate from EI* to EI) (Escherichia coli LpxC; [7]): 0.0014 ± 0.0001 min⁻¹ | Ki (Escherichia coli LpxC; fit of kobs vs inhibitor concentration, 30 μM substrate, 0.1 nM enzyme, Ki* constrained, read-out: Ki (inhibition constant of the initial encounter complex EI)): 0.973 ± 0.128 nM | Enhancement (MIC CHIR-090/MIC LPC-058) (Escherichia coli W3110; Escherichia coli W3110): 7.2 | Enhancement (MIC LPC-011/MIC LPC-058) (Escherichia coli W3110; Escherichia coli W3110): 2.2 | Enhancement (MIC CHIR-090/MIC LPC-058) [4]: 5.0 | Enhancement (MIC LPC-011/MIC LPC-058) [4]: 2.0 | MIC [4]: 0.167 µg/mL (≈ 0.391 µM) | Enhancement (MIC CHIR-090/MIC LPC-058) [1]: 12 | Enhancement (MIC LPC-011/MIC LPC-058) [1]: 2.8 | MIC [1]: 0.021 µg/mL (≈ 0.0491 µM) | Enhancement (MIC CHIR-090/MIC LPC-058) [2]: 31 | Enhancement (MIC LPC-011/MIC LPC-058) [2]: 3.9 | MIC [2]: 0.016 | Enhancement (MIC CHIR-090/MIC LPC-058) [3]: 13 | Enhancement (MIC LPC-011/MIC LPC-058) [3]: 3.8 | MIC [3]: 0.0026 | Enhancement (MIC CHIR-090/MIC LPC-058) (Enterobacter cloacae): 12 | Enhancement (MIC LPC-011/MIC LPC-058) (Enterobacter cloacae): 2.0 | MIC (Enterobacter cloacae): 0.026 | Enhancement (MIC CHIR-090/MIC LPC-058) (Morganella morganii): 55 | Enhancement (MIC LPC-011/MIC LPC-058) (Morganella morganii): 2.0 | MIC (Morganella morganii): 0.019 g/mL | Enhancement (MIC CHIR-090/MIC LPC-058) (Proteus mirabilis): 32 | Enhancement (MIC LPC-011/MIC LPC-058) (Proteus mirabilis): 5.0 | MIC (Proteus mirabilis): 0.026 | Minimal chlamydiacidal concentration (MCC), listed in MIC column (Chlamydia trachomatis): 0.08 | Enhancement (MIC CHIR-090/MIC LPC-058) (Chlamydia trachomatis; MCC): 100 | Enhancement (MIC LPC-011/MIC LPC-058) (Chlamydia trachomatis; MCC): 6.0 | MIC ([5]; Acinetobacter baumannii): 0.39 µg/mL (≈ 0.912 µM) | Enhancement (MIC CHIR-090/MIC LPC-058) ([5]; Acinetobacter baumannii 17978): > 128 | Enhancement (MIC LPC-011/MIC LPC-058) ([5]; Acinetobacter baumannii 17978): 25

C[C@](O)([C@H](NC(=O)c1ccc(C#CC#Cc2ccc(N)cc2)cc1)C(=O)NO)C(F)(F)F [LPC-083]
compromised inhibitory effect (Ki*) over parent compound LPC-037 (Escherichia coli LpxC; E. coli LpxC): ninefold | inhibition constant worse than LPC-011 (Escherichia coli LpxC; E. coli LpxC): fivefold | Ki (Escherichia coli LpxC; [6]): 0.125 ± 0.004 nM | MIC (Escherichia coli W3110): 0.1 µg/mL (≈ 0.225 µM)
